Data from BindingDB's records for doi:10.1016/S0960-894X(97)00083-8 (1997).

Molecular target: Integrin alpha-IIb/beta-3 (Homo sapiens, UniProt P08514+P05106)
Experiment: ChEBML_215984

Sequence of Integrin alpha-IIb/beta-3 (P05106 27-788 limits assumed): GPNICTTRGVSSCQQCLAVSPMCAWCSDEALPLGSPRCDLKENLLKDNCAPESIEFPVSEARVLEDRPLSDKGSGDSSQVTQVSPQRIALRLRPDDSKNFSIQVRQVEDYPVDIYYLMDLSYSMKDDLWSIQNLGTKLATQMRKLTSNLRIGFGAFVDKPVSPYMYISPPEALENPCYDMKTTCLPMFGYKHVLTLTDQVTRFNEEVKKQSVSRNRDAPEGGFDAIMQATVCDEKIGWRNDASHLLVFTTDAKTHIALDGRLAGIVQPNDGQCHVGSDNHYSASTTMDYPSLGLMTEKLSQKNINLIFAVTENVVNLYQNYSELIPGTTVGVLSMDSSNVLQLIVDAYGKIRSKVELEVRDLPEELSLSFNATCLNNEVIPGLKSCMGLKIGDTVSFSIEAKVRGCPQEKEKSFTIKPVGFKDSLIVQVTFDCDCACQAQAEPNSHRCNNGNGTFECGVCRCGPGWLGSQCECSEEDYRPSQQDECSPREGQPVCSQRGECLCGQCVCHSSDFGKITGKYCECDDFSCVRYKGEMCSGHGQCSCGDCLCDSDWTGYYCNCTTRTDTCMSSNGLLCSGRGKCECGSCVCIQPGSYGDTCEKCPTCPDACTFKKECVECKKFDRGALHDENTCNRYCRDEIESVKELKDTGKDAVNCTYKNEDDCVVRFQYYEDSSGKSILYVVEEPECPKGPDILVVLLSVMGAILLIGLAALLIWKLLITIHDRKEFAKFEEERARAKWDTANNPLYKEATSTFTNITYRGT
Sequence of Integrin alpha-IIb/beta-3 (P08514 32-887 limits assumed): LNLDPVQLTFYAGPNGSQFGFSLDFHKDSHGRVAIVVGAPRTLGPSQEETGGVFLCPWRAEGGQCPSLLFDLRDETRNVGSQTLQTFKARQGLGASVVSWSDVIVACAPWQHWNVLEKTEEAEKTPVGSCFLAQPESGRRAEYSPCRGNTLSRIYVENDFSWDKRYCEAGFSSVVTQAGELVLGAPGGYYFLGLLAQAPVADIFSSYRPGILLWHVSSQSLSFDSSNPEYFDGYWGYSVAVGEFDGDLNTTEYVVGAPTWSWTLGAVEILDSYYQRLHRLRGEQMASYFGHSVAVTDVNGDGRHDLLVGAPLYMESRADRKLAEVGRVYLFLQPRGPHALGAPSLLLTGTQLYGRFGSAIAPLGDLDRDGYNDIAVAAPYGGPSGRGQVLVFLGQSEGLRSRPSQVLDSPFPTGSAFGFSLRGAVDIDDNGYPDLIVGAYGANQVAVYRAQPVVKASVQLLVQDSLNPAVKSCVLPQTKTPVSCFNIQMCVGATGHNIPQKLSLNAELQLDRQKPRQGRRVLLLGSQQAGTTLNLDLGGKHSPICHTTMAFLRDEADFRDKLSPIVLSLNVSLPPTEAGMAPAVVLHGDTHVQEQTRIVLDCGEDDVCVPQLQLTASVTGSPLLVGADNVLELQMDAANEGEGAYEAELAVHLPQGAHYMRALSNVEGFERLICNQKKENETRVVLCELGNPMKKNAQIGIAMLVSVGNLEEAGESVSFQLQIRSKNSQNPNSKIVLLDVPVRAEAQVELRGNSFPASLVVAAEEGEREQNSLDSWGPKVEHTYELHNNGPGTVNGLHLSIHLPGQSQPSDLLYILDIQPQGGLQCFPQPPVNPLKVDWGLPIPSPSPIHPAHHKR
Sequence of Integrin alpha-IIb/beta-3 (P08514 891-1039 limits assumed): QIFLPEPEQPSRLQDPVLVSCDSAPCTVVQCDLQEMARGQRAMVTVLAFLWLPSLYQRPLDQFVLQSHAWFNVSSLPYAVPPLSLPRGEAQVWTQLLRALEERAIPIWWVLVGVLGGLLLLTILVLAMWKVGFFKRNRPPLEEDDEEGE

IC50: 13 nM
Structure (SMILES): CC(C)C1CN(C)C(CCCN=C(N)NC(=O)c2ccc(N=[N][Tc]345(=[P@SP2](c6ccc([S@TB1](=O)(=O)O)cc6)(c6ccccc6S(=O)(=O)O)c6ccccc6[S@TB1](=O)(=O)O)[O]CC[N]3C(CO)(C[O]4)C[O]5)nc2)C(=O)NCC(=O)NC(CC(=O)O)C(=O)NCc2cc(NC(=O)CCCCCN)cc(c2)C(=O)N1 (stereo unspecified) [RP-444]
